The test system of series [1] is human sebocytes immortalized in culture, derived from the SZ95 line. Put plainly: Quantity of lipids produced by sebocytes (Nile Red fluorescence). It is filed as cell-based. The following applies: 100 μM, 2 days of treatment, total lipids, SZ95 sebocytes at confluence. The procedure:
The test compounds were evaluated on a model of human sebocytes immortalized in culture, derived from the SZ95 line described in Zouboulis, C. C. et al., Establishment and Characterization of an Immortalized Human Sebaceous Gland Cell Line, J. Invest. Dermatol., 113, 1011-1020 (1999).
The test consists of measuring the quantity of lipids produced by the sebocytes of the cell line (at confluence), with or without active agents present, diluted in DMSO, in such a way that the final amount of DMSO in the basal medium is 0.1%. After 2 days of treatment, the adhering cells are treated with Nile Red (1 μg/ml). The lipids content is then quantified by measuring the fluorescence of the stain (two excitation/emission pairs: 485-540 nm for neutral lipids and 540-620 nm for non-neutral lipids). The results are given for total lipids (combining both measurements).
The test is carried out in decaplicate (assayed products and control) in a 96-well plate and renewed 3 times.

Series [2] is described as follows: Stability in solution, hydrolysis of the esters by HPLC. Format: physicochemical. The following applies: hydrolysis of glucopyranose linoleate; 0.1 wt. % in ethanol/isopropanol/water (64/16/20 by volume), 45° C., 2 months. As for the experimental part:
The stability of the compounds according to the invention was evaluated (measurement of hydrolysis of the esters).
Solutions were prepared at 0.1 wt. % of the compounds in ethanol/isopropanol/water mixture (64/16/20 by volume). These solutions were left in a thermostat at 45° C., for 2 months.
Then the percentage hydrolysis of glucopyranose linoleate was determined by HPLC.

Another series deals with SZ 95 sebocytes. In words: Cytotoxicity on sebocytes, production of LDH in the basal medium. Format: cell-based. The following applies: for Variation, LDH/control: 100 μM. The procedure: The tolerance of the glucose ester at 6 of linoleic acid was determined by measuring the cytotoxicity of the product on SZ 95 sebocytes, with linoleic acid alone as control.
The test conditions are identical to those examined in example 1. Cytotoxicity is measured by the production of LDH in the basal medium, according to the method described in Thomas J P et al.; Lethal damage to endothelial cells by oxidized low density lipoprotein: role of selenoperoxidases in cytoprotection against lipid hydroperoxide and iron mediated reactions. Journal of lipid research 34: 479-490. 1993.

Series [3] in a line: Peroxidizability in the air, proportion of intact molecules by HPLC. It is filed as physicochemical. The following applies: storage for two months, at room temperature (about 20 to 25° C.), HPLC with UV detection (210 nm). The procedure:
The purpose of this study is to evaluate the peroxidizability of various molecules or mixtures of molecules by carrying out various tests. These tests consist of measuring the proportion of molecules still intact after storage for two months, in air, at room temperature (about 20 to 25° C.). The loss of the starting product is monitored by HPLC with UV detection (210 nm).

As for `CCCCCC=CCC=CCCCCCCCC(=O)NC1C(O)OC(CO)C(O)C1O` (stereo not shown), in series [1], the “Variation, lipid/CONTROL” value was “+40%”.

As to `CCCCCC=CCC=CCCCCCCCC(=O)O[C@H]1[C@H](O)[C@@H](CO)OC(O)[C@@H]1O` (stereo partly drawn) [3-O-octadeca-9,12-dienoyl-D-glucopyranose], the “% hydrolysis” value in series [2] was found to be 30%.

Take `CCCCCC=CCC=CCCCCCCCC(=O)OC[C@H]1OC(O)[C@H](O)[C@@H](O)[C@@H]1O` (stereo partly drawn) [6-O-octadeca-9,12-dienoyl-D-glucopyranose]: in the series on SZ 95 sebocytes (SZ 95 sebocytes, LDH in the basal medium), the “Variation, LDH/control” value is given as “Not significant”. In addition, the “cytotoxicity with respect to sebocytes (in words)” value in the series on SZ 95 sebocytes (SZ 95 sebocytes) is recorded as “No cytotoxicity was found”. This compound also showed an intact molecules in series [3] of 30%. For the same compound, the “% hydrolysis” value in series [2] worked out at 7%.

On to `C[C@]12CC[C@H](O)CC1=CC[C@@H]1[C@@H]2CC[C@]2(C)C(=O)CC[C@@H]12` [DHEA, dehydroepiandrosterone, reference compound], for which, in series [1], the “Variation, lipid/CONTROL” value was “+80%”.

With `CCCCCC=CCC=CCCCCCCCC(=O)O` [Linoleic acid, octadeca-9,12-dienoic acid, reference compound], in the series on SZ 95 sebocytes (human), the “Variation, LDH/control” value was “+20%”. Moreover, the intact molecules result in series [3] was “no longer contain intact molecules”.

Regarding `CCCCC/C=C\C/C=C\CCCCCCCC(=O)OC` [methyl linoleate], the intact molecules result in series [3] was “no longer contain intact molecules”.

For the origin of these results see patent publication US20060165630A1, “Use of amide or ester of sugar and of fatty acid, for treating and/or preventing dry skin” (priority 2002, published 2006).
